Test results taken from the supplement of paper PMC10307832.

How the values were obtained:
Assay in all cases: relative viability (nuclei count vs DMSO), 5 days (fraction); higher = more cells survive
[1] = compound: CC1=C(CC(=O)O)c2cc(F)ccc2/C1=C\c1ccc([S+](C)[O-])cc1 [Sulindac] + CC1(C)CCC(c2ccc(Cl)cc2)=C(CN2CCN(c3ccc(C(=O)NS(=O)(=O)c4ccc(N[C@H](CCN5CCOCC5)CSc5ccccc5)c(S(=O)(=O)C(F)(F)F)c4)cc3)CC2)C1 [Navitoclax] (partner 0.5 µM)
Procedure, shortened: (§1)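 Lung cancer cell lines in 1536-well plates got either a single drug or a fixed anchor-drug dose together with five library-drug doses (not always all listed) in √10 steps, by pin tool, on the day after seeding. Nuclei were counted after 5 days, and relative viability is the treated-to-vehicle ratio of nuclei counts. Values are medians of duplicate plates.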

[2] = compound: CN[C@@H]1C[C@H]2O[C@@](C)([C@@H]1OC)n1c3ccccc3c3c4c(c5c6ccccc6n2c5c31)C(=O)NC4 [Staurosporine] + CC(=O)Nc1cccc(-n2c(=O)n(C3CC3)c(=O)c3c(Nc4ccc(I)cc4F)n(C)c(=O)c(C)c32)c1 [Trametinib] (partner 0.02 µM)
Procedure, shortened: as §1

[3] = compound: CN[C@@H]1C[C@H]2O[C@@](C)([C@@H]1OC)n1c3ccccc3c3c4c(c5c6ccccc6n2c5c31)C(=O)NC4 [Staurosporine] + CCNC(=O)c1noc(-c2cc(C(C)C)c(O)cc2O)c1-c1ccc(CN2CCOCC2)cc1 [Luminespib] (partner 0.01 µM)
Procedure, shortened: as §1

[4] = compound: CC1=C(CC(=O)O)c2cc(F)ccc2/C1=C\c1ccc([S+](C)[O-])cc1 [Sulindac] + N=C(N)NC(=N)NCCc1ccccc1 [Phenformin] (partner 250 µM)
Procedure, shortened: as §1

Cell Line | relative viability ([1]; first compound 0.08 µM) | relative viability ([1]; first compound 0.253 µM) | relative viability ([1]; first compound 0.8 µM) | relative viability ([1]; first compound 2.53 µM) | relative viability ([1]; first compound 8 µM) | relative viability ([2]; first compound 0.005 µM) | relative viability ([2]; first compound 0.05 µM) | relative viability ([2]; first compound 0.1581 µM) | relative viability ([2]; first compound 0.5 µM) | relative viability ([3]; first compound 0.005 µM) | relative viability ([3]; first compound 0.05 µM) | relative viability ([3]; first compound 0.1581 µM) | relative viability ([3]; first compound 0.5 µM) | relative viability ([4]; first compound 0.08 µM) | relative viability ([4]; first compound 0.253 µM) | relative viability ([4]; first compound 0.8 µM) | relative viability ([4]; first compound 2.53 µM) | relative viability ([4]; first compound 8 µM) | relative viability ([2]; first compound 0.01581 µM) | relative viability ([3]; first compound 0.01581 µM)
HCC-15 | 0.811 | 0.795 | 0.625 | 0.708 | 0.798 | 0.305 | 0.192 | 0.192 | 0.165 | 0.303 | 0.219 | 0.169 | 0.165 | 0.54 | 0.468 | 0.323 | 0.491 | 0.57 | – | –
PC-14 | 0.933 | 1.1 | – | 1.07 | 1.14 | 0.483 | 0.0553 | 0.0467 | 0.0475 | 0.11 | 0.103 | 0.132 | 0.118 | 0.571 | 0.403 | 0.403 | 0.537 | 0.853 | 0.064 | 0.101
HOP-62 | 0.982 | 1.37 | – | 1.21 | 1.22 | 0.359 | 0.184 | 0.141 | 0.102 | 0.949 | 0.189 | 0.134 | 0.109 | 0.785 | 0.937 | – | 0.746 | 0.759 | 0.196 | 0.426
NCI-H322M | 1.28 | 1.37 | 1.08 | 1.27 | 1.29 | 0.518 | 0.342 | 0.45 | 0.432 | 0.631 | 0.259 | 0.274 | 0.182 | 0.881 | 0.833 | 0.668 | 0.762 | 0.879 | 0.418 | –
NCI-H1395 | 1.2 | 1.17 | 1.1 | 1.19 | 1.2 | 0.98 | 0.476 | 0.305 | 0.261 | 0.613 | 0.349 | 0.318 | 0.346 | 0.427 | 0.448 | 0.478 | 0.44 | 0.526 | 0.77 | 0.507
NCI-H727 | 0.32 | 0.385 | 0.381 | 0.416 | 0.433 | 0.349 | 0.316 | 0.267 | 0.257 | 0.291 | 0.252 | 0.223 | 0.183 | 0.406 | 0.554 | – | 0.564 | 0.584 | 0.346 | 0.373
NCI-H1734 | 0.785 | 1.03 | 0.594 | 0.987 | 1.12 | 0.715 | 0.165 | 0.119 | 0.101 | 0.112 | 0.511 | 0.0656 | 0.0444 | 0.402 | 0.337 | – | 0.396 | 0.496 | 0.387 | 0.0831
EKVX | 0.976 | 0.969 | 0.889 | 1.04 | 1.07 | 0.224 | 0.143 | 0.169 | 0.12 | 0.65 | 0.277 | 0.176 | 0.107 | 0.244 | 0.214 | 0.211 | 0.218 | 0.226 | 0.184 | 0.385
NCI-H596 | 0.901 | 0.953 | 0.812 | 1.02 | 1.13 | 0.753 | 0.275 | 0.184 | 0.173 | 1.19 | 0.509 | 0.237 | 0.3 | 0.839 | 0.892 | 0.56 | 0.71 | 0.771 | 0.494 | 0.719
LCLC-97TM1 | 0.566 | 0.397 | 0.386 | – | 0.351 | 0.168 | 0.103 | 0.0977 | 0.0977 | 0.829 | 0.338 | 0.268 | 0.221 | 0.497 | 0.518 | 0.447 | 0.441 | 0.486 | 0.115 | 0.416
COR-L23 | 1.19 | 1.09 | – | 0.964 | 1.3 | 0.325 | 0.0689 | 0.0665 | 0.0391 | 0.262 | 0.083 | 0.0871 | 0.0485 | 0.506 | 0.487 | 0.339 | 0.51 | 0.549 | 0.148 | 0.324
NCI-H1355 | 1.03 | 0.989 | 0.806 | 0.961 | 0.914 | 0.279 | 0.232 | 0.22 | 0.147 | 0.591 | 0.212 | 0.209 | 0.191 | 0.451 | 0.506 | – | 0.44 | 0.46 | 0.255 | 0.278
EPLC-272H | 1.16 | – | 0.828 | 1.23 | 1.27 | 0.291 | 0.123 | 0.067 | 0.0425 | 0.206 | 0.0679 | 0.0575 | 0.075 | 0.272 | 0.324 | – | 0.307 | 0.263 | 0.15 | 0.0928
ChaGo-K-1 | 1.01 | 0.925 | 1.21 | 0.897 | 1.56 | 0.911 | 0.796 | 0.579 | 0.455 | 0.7 | 0.374 | 0.185 | 0.176 | 0.592 | 0.51 | 0.481 | 0.5 | 0.596 | – | 0.344
NCI-H1651 | 1.29 | 1.3 | 0.544 | 1.22 | 1.38 | 0.871 | 0.569 | 0.509 | 0.346 | 0.793 | 0.459 | 0.173 | 0.116 | 0.399 | 0.342 | – | 0.307 | 0.362 | 0.785 | 0.614
SW 1573 | – | 1.02 | – | 1.09 | 1.2 | 0.137 | 0.055 | 0.047 | 0.033 | 0.096 | 0.091 | 0.0676 | 0.0574 | 0.458 | 0.365 | – | 0.388 | 0.509 | 0.0903 | 0.0703
HCC-44 | 1.21 | 1.08 | 0.904 | 1.15 | 1.02 | 1.04 | 0.444 | – | 0.322 | 0.416 | 0.161 | 0.187 | 0.137 | 0.181 | 0.205 | 0.186 | 0.159 | 0.261 | – | 0.169
